Assay results published in publication PMC4000412, “Novel LHRH-receptor-targeted cytolytic peptide, EP-100: first-in-human phase I study in patients with advanced LHRH-receptor-expressing solid tumors” (Cancer Chemotherapy and Pharmacology, 2014).
“Also recorded” adds a separate entry of the source. Peptide text beside a SMILES is read from it.

How the values were obtained:
[1] = test system: LHRH-receptor-positive human ovarian cancer cell line (OVCAR-3); parameters: method as in earlier work; conditions: mice implanted with OVCAR-3, three weekly doses; cited from earlier work
[2] = Antidrug antibodies (anti-EP-100) ELISA in human serum; assay type: in vivo; conditions: any dose level
Procedure: ADA were evaluated using an enzyme linked immunoassay validated for the detection of antibodies against EP-100 (anti-EP-100) (Icon plc, formerly Prevalere Life Sciences, LLC, Whitesboro, NY). Antibodies were produced in rabbits against the lytic peptide moiety of EP-100 (APC 338983). Antibodies against EP-100 in human serum were detected by coating 96-well microtiter plates with peptide 338983. At least two wells from each plate were coated with human IgG at 500 ng/mL as controls for the goat antihuman horseradish peroxidase detector. Rabbit anti-EP-100 polyclonal antibody was used as a positive control. The plates were washed, and a mixture of goat antirabbit HRP and goat antihuman HRP and tetramethylbenzidine peroxide substrate were added, and the color development determined in a spectrophotometer at 450 and 620 nm wavelength. The developed color was proportional to the amount of anti-EP-100 antibody in the sample. The anti-EP-100 antibodies in serum were quantified from a calibration curve prepared from the positive control and ranged from 500 to 32,000 ng/mL in 100 % human serum.

[3] = Phase I dose-escalation safety: MTD, DLT, adverse events (NCI CTCAE 3.0); assay type: in vivo, human
Procedure: An open-label dose-escalation study was conducted at three centers after review and approval by each centers’ Institutional Review Board. Patients’ written informed consent was provided prior to study enrollment. The primary objectives of the study were to determine the maximum-tolerated dose (MTD) of EP-100 by intravenous (IV) infusion and to describe any dose limiting toxicities (DLT), which would inform the recommended phase 2 dose (RP2D) of EP-100 for future phase 2 protocols. Secondary objectives included: (a) to profile the PK and PD of EP-100, (b) to assess any drug immunogenicity by antidrug antibodies (ADA) which may react with endogenous LHRH, (c) to monitor biomarkers of pharmacologic activity of EP-100 and (d) to assess antitumor activity of EP-100 by radiographic assessments.
Cohorts of three patients were enrolled in a 3 + 3 dose-escalation design. […] A conservative first-in-human starting dose of 0.6 mg/m^2 was chosen, based on the repeat-dose toxicity studies in dogs (which appeared to be the most sensitive species). The initial dose schedule of one 30 min infusion weekly was predicted from animal PK profiles. Dosing frequency and infusion time were increased in subsequent cohorts by two protocol amendments. To increase the cumulative dose-exposure to EP-100, infusions were increased to twice weekly after conducting safety assessments in the first seven cohorts (n = 21 patients, at dose levels 0.6–7.8 mg/m^2). Twice weekly infusions effectively doubled the EP-100 delivered in all patients after cohort 7. The infusion time for the twice weekly doses also was increased from 30 to 60 min beginning with one patient in cohort 8 (dose level 11.7 mg/m^2), which decreased the intensity of infusion reactions (described below).
The absence of grade 2 drug-related toxicities in lower dose cohorts allowed 100 % dose acceleration. In the event of grade 2 or higher non-DLT in one or more patients, dose was escalated by 50 %. Dose escalation was limited to 50 % for any grade 1 or 2 drug-related dermatologic reactions unlikely to be allergic reaction or histamine-release syndromes and to 25 % for any grade 3 or 4 drug-related infusion reaction. With occurrence of the first DLT, the cohort was expanded to three additional patients. If one or more of the three additional patients at that dose level experienced DLT (total of two or more patients with DLT), MTD was reached. MTD was defined as the dose level below which two out of three to six patients experienced a DLT during the first cycle or during 1 complete cycle (28 days).
All adverse events (AE) were graded and reported according to National Cancer Institute Common Terminology Criteria for Adverse Events version 3.0 (NCI CTCAE 3.0). DLT were recorded during Cycle 1 if patients had any of the following: grade 4 neutropenia lasting 5 or more days, grade 3/4 neutropenia with fever and/or infection, grade 4 thrombocytopenia or grade 3 thrombocytopenia with bleeding, grade 3 or 4 allergic reaction, grade 3 or 4 drug-related non-hematologic toxicity (not including grade 3 nausea/vomiting or diarrhea with sub-optimal prophylactic and curative treatment) or a dose delay of more than 2 weeks due to treatment-related AE or laboratory abnormalities. Any grade 3 AE not judged to be clinically significant (e.g., alopecia or drug-related fever) were not considered DLT.

[4] = selected toxicities, all cycles, N = 37

In the case of `CC(C)C[C@H](NC(=O)CNC(=O)[C@H](Cc1ccc(O)cc1)NC(=O)[C@H](CO)NC(=O)[C@H](Cc1c[nH]c2ccccc12)NC(=O)[C@H](Cc1c[nH]cn1)NC(=O)[C@@H]1CCC(=O)N1)C(=O)N[C@@H](CCCNC(=N)N)C(=O)N1CCC[C@H]1C(=O)NCC(=O)N[C@@H](CCCCN)C(=O)N[C@@H](Cc1ccccc1)C(=O)N[C@@H](C)C(=O)N[C@@H](CCCCN)C(=O)N[C@@H](Cc1ccccc1)C(=O)N[C@@H](C)C(=O)N[C@@H](CCCCN)C(=O)N[C@@H](CCCCN)C(=O)N[C@@H](Cc1ccccc1)C(=O)N[C@@H](C)C(=O)N[C@@H](CCCCN)C(=O)N[C@@H](Cc1ccccc1)C(=O)N[C@@H](C)C(=O)N[C@@H](CCCCN)C(=O)N[C@@H](CCCCN)C(=O)N[C@@H](Cc1ccccc1)C(=O)N[C@@H](C)C(=O)N[C@@H](CCCCN)C(=O)O` [EP-100] (HELM PEPTIDE1{[Glp].H.W.S.Y.G.L.R.P.G.K.F.A.K.F.A.K.K.F.A.K.F.A.K.K.F.A.K}$$$$V2.0; C-terminus assumed), the in vivo activity [1] is listed as “decreased CA-125 levels and tumor regression”, the “antibodies to EP-100 (ADA)” value [2] is listed as “not detected” and the “IRDRs in the four lowest dose cohorts” value ([3]; 0.6–1.7 mg/m^2 at dose concentrations of 0.01–0.03 mg/mL) is listed as “No IRDRs”. The “toxicities / AE of grade 3 or higher” value ([3]; all 37 patients, all dose levels) was “No toxicities ≥grade 3; also recorded: no grade 3 or 4 AE”, the “IRDRs (infusion-related dermatologic reactions) reported” value ([3]; all dose levels) was 10 of 37 and the “SAE Disease progression, No. of patients (%)” value ([3]; dosing 1.35 mg/m^2 qw) was 1 (2.7) No. of patients (%). For the same compound, the “SAE Disease progression, Outcome” value ([3]; dosing 1.35 mg/m^2 qw) was “Death”, the “SAE Disease progression, Relationship to EP-100” value ([3]; dosing 1.35 mg/m^2 qw) was “Unrelated” and the “SAE Gastrointestinal hemorrhage, No. of patients (%)” value ([3]; dosing 1.35 mg/m^2 qw) was 1 (2.7) No. of patients (%). The “SAE Gastrointestinal hemorrhage, Outcome” value ([3]; dosing 1.35 mg/m^2 qw) was “Resolved”, the “SAE Gastrointestinal hemorrhage, Relationship to EP-100” value ([3]; dosing 1.35 mg/m^2 qw) was “Unlikely related” and the “SAE Peripheral edema, No. of patients (%)” value ([3]; dosing 1.35 mg/m^2 qw) was 1 (2.7) No. of patients (%). For the same compound, the “SAE Peripheral edema, Outcome” value ([3]; dosing 1.35 mg/m^2 qw) was “Resolved with sequelae”, the “SAE Peripheral edema, Relationship to EP-100” value ([3]; dosing 1.35 mg/m^2 qw) was “Unrelated” and the “SAE Pain, No. of patients (%)” value ([3]; dosing 1.7 mg/m^2 qw) was 1 (2.7) No. of patients (%). The “SAE Pain, Outcome” value ([3]; dosing 1.7 mg/m^2 qw) was “Ongoing”, the “SAE Pain, Relationship to EP-100” value ([3]; dosing 1.7 mg/m^2 qw) was “Unrelated” and the “SAE Chills, No. of patients (%)” value ([3]; dosing 11.7 mg/m^2 biw) was 1 (2.7) No. of patients (%). For the same compound, the “SAE Chills, Outcome” value ([3]; dosing 11.7 mg/m^2 biw) was “Resolved”, the “SAE Chills, Relationship to EP-100” value ([3]; dosing 11.7 mg/m^2 biw) was “Unrelated” and the “SAE Hydronephrosis, No. of patients (%)” value ([3]; dosing 11.7 mg/m^2 biw) was 1 (2.7) No. of patients (%). The “SAE Hydronephrosis, Outcome” value ([3]; dosing 11.7 mg/m^2 biw) was “Resolved”, the “SAE Hydronephrosis, Relationship to EP-100” value ([3]; dosing 11.7 mg/m^2 biw) was “Unrelated” and the “SAE Febrile neutropenia, No. of patients (%)” value ([3]; dosing 17.5 mg/m^2 biw) was 1 (2.7) No. of patients (%). The “SAE Febrile neutropenia, Outcome” value ([3]; dosing 17.5 mg/m^2 biw) was “Resolved”, the “SAE Febrile neutropenia, Relationship to EP-100” value ([3]; dosing 17.5 mg/m^2 biw) was “Unrelated” and the “SAE Ascites, No. of patients (%)” value ([3]; dosing 26 mg/m^2 biw) was 1 (2.7) No. of patients (%). For the same compound, the “SAE Ascites, Outcome” value ([3]; dosing 26 mg/m^2 biw) was “Resolved with sequelae”, the “SAE Ascites, Relationship to EP-100” value ([3]; dosing 26 mg/m^2 biw) was “Unlikely related” and the “SAE Fatigue, No. of patients (%)” value ([3]; dosing 26 mg/m^2 biw) was 1 (2.7) No. of patients (%). The “SAE Fatigue, Outcome” value ([3]; dosing 26 mg/m^2 biw) was “Resolved”, the “SAE Fatigue, Relationship to EP-100” value ([3]; dosing 26 mg/m^2 biw) was “Unrelated” and the “SAE Facial paresis, No. of patients (%)” value ([3]; dosing 40 mg/m^2 biw) was 1 (2.7) No. of patients (%). The “SAE Facial paresis, Outcome” value ([3]; dosing 40 mg/m^2 biw) was “Ongoing”, the “SAE Facial paresis, Relationship to EP-100” value ([3]; dosing 40 mg/m^2 biw) was “Unrelated” and the “SAE Gastrointestinal obstruction, No. of patients (%)” value ([3]; dosing 0.6, 0.9 mg/m^2 qw) was 2 (5.4) No. of patients (%). The “SAE Gastrointestinal obstruction, Outcome” value ([3]; dosing 0.6, 0.9 mg/m^2 qw) was “Resolved with sequelae”, the “SAE Gastrointestinal obstruction, Relationship to EP-100” value ([3]; dosing 0.6, 0.9 mg/m^2 qw) was “Unrelated” and the “SAE Pleural effusion, No. of patients (%)” value ([3]; dosing 11.7, 26 mg/m^2 biw) was 2 (5.4) No. of patients (%). The “SAE Pleural effusion, Outcome” value ([3]; dosing 11.7, 26 mg/m^2 biw) was “Resolved”, the “SAE Pleural effusion, Relationship to EP-100” value ([3]; dosing 11.7, 26 mg/m^2 biw) was “Unrelated” and the “maximum-tolerated dose (MTD)” value ([3]; highest dose evaluated 40 mg/m^2 twice weekly, IV infusion, 3 of 4 weeks per 28 day cycle) was “not reached”. The “onset of IRDRs after start of the drug infusion” value ([3]; in vivo) was at most 15 min, the “infusion site hypersensitivity, patients” value ([3]; n = 4 patients of 37) was 10.8% and the “pain, patients” value ([3]; one patient of 37) was 2.7%. The “AP (alkaline phosphatase), Grade 1/2” value [3, 4] was 1 (2.7) No. of patients (%), the “AP (alkaline phosphatase), Grade 3/4” value [3, 4] was 0 No. of patients (%) and the “AST/ALT, Grade 1/2” value [3, 4] was 1 (2.7) No. of patients (%). For the same compound, the “AST/ALT, Grade 3/4” value [3, 4] was 0 No. of patients (%), the “Diarrhea, Grade 1/2” value [3, 4] was 1 (2.7) No. of patients (%) and the “Diarrhea, Grade 3/4” value [3, 4] was 0 No. of patients (%). The “Fatigue, Grade 1/2” value [3, 4] was 4 (10.8) No. of patients (%), the “Fatigue, Grade 3/4” value [3, 4] was 0 No. of patients (%) and the “Gastroesophageal reflux, Grade 1/2” value [3, 4] was 1 (2.7) No. of patients (%). For the same compound, the “Gastroesophageal reflux, Grade 3/4” value [3, 4] was 0 No. of patients (%), the “Hemoglobin, Grade 1/2” value [3, 4] was 0 No. of patients (%) and the “Hemoglobin, Grade 3/4” value [3, 4] was 0 No. of patients (%). The “Infusion-related dermatologic reactions, Grade 1/2” value [3, 4] was 10 (27) No. of patients (%), the “Infusion-related dermatologic reactions, Grade 3/4” value [3, 4] was 0 No. of patients (%) and the “Neutrophils, Grade 1/2” value [3, 4] was 0 No. of patients (%). The “Neutrophils, Grade 3/4” value [3, 4] was 0 No. of patients (%), the “Platelets, Grade 1/2” value [3, 4] was 0 No. of patients (%) and the “Platelets, Grade 3/4” value [3, 4] was 0 No. of patients (%). The “Total bilirubin, Grade 1/2” value [3, 4] was 0 No. of patients (%), the “Total bilirubin, Grade 3/4” value [3, 4] was 0 No. of patients (%) and the “Vomiting, Grade 1/2” value [3, 4] was 1 (2.7) No. of patients (%). For the same compound, the “Vomiting, Grade 3/4” value [3, 4] was 0 No. of patients (%), the “number of SAE recorded” value ([3]; treatment-emergent, 37 patients) was “Fourteen” and the “decreased appetite, patients” value ([3]; two patients of 37) was 5.4%. The “time to disappearance of all IRDR symptoms after cessation of the infusion” value ([3]; typically) was at most 30 min.
